Like-named read-outs stand apart in the source and are kept apart here.
Assay: Distribution of sGC stimulators in tissues, rats (liver and plasma by LC-MS/MS)
Assay type: in vivo
Conditions: Wistar, rat, 2 h post fifth dose, male rats, read-out: total Liver:Plasma ratio
Procedure: The purpose of this experiment was to determine compound concentrations in the plasma and tissues of animals dosed with sGC stimulators for 5 days Q.D.
In a first experiment, the sGC stimulator Compound B (described previously in Example 2) was dosed for 5 Days Q.D. to male Wister rats. Rats were divided into four study groups and dosed according to the below table:
The animals were dosed daily for five consecutive days according the table above. On each day of dosing, frozen aliquots of each dosing solution were thawed and the animals were weighed and dosed accordingly. On day 5, two hours post the fifth dose, blood was collected by orbital bleed. Blood samples were collected in EDTA tubes pre-loaded with 5 μL of 100 mM IBMX Plasma was be separated by centrifugation for 10 minutes at 4° C. and then stored at −80° C.
A Ketamine/Xylazine/pbs solution as a 5:1:4 ratio was administered I.P. at 1 ul per gram. Once the rat was fully anesthetized (as determined by checking its reflexes) and while the heart was still beating, a needle was inserted into the left ventricle. Approximately 20 mls of PBS/IBMX/heparin solution were then perfused. The right atrium was snipped, and perfusion continued for approximately 10 additional mls (30 mls total). At this point, the femoral artery was snipped and perfusion was continued until there was no longer blood (only clear fluid) collecting in the abdominal cavity. Several tissues, including liver, were isolated and weighed followed by snap freezing.
A second separate and similar experiment was carried out with Compound C. The structure of Compound C is depicted below. The preparation and characterization of this compound was described in patent application publication WO2014144100, published 18 Sep. 2014.
For this second experiment, rats were divided into four study groups and dosed according to the below table:
Samples were analyzed using liquid chromatography (LC) with tandem mass spectrometric detection (MS/MS) using positive electrospray ionization. The standard curve range was from 0.1 to 400 ng/mL. […]
In order to prepare the tissues for measurement, the naïve livers and the livers isolated after treatment were removed from the −80° C. freezer and placed on liquid nitrogen. The liver weight was recorded and then the tissue placed in a Geno grinding vial containing two 7/16″ steel beads. […] Approximately 200 mg of tissue from each sample was weighed and recorded. […] The samples were analyzed by LC-MS/MS.
Total liver and plasma concentrations were measured and liver concentrations were corrected for total liver weight. Liver: Plasma ratios were determined by dividing liver compound concentration by the plasma compound concentration. […]

SMILES: OC(CNc1nc(-c2cc(-c3ccon3)n(Cc3ccccc3F)n2)ncc1F)(C(F)(F)F)C(F)(F)F [Compound B]
- Kp (1 mg/kg PO Q.D. 5 days): 19
- Kp (10 mg/kg PO Q.D. 5 days): 20

Reference: patent US11357777B2, “Use of sGC stimulators for the treatment of nonalcoholic steatohepatitis (NASH)” (Cyclerion Therapeutics, Inc., priority 2016, dated 2022)
